Source: patent US20240383875A1, “Benzimidazole Pyridine Derivatives” (Hoffmann-La Roche Inc., priority 2022, published 2024)

Key:
Type in all cases: biochemical
[1] = target: SIK1 (Homo sapiens, UniProt P57059); assay: Enzymatic activity assay SIK1, RapidFire mass spectrometry (phosphorylation of CHK-peptide); details: RapidFire MS, inhibition of SIK1; read-out: SIK1 RF IC50
Summary of the method: (§1)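 Human SIK1/2/3, 5/0.5/1.5 nM; 12.5 mM HEPES pH 7.0, 10 mM Mg acetate, 0.005% BSA. 30 min cpd pre-inc, + CHK-peptide (10 μM soln) + ATP (100 μM soln), 45 min RT. Formic acid stop; RF-MS phospho ratio; IC50.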

[2] = target: SIK3 (Homo sapiens, UniProt Q9Y2K2); assay: Enzymatic activity assay SIK3, RapidFire mass spectrometry (phosphorylation of CHK-peptide); details: RapidFire MS, inhibition of SIK3; read-out: SIK3 RF IC50
Chain of SIK3 (Q9Y2K2 whole entry): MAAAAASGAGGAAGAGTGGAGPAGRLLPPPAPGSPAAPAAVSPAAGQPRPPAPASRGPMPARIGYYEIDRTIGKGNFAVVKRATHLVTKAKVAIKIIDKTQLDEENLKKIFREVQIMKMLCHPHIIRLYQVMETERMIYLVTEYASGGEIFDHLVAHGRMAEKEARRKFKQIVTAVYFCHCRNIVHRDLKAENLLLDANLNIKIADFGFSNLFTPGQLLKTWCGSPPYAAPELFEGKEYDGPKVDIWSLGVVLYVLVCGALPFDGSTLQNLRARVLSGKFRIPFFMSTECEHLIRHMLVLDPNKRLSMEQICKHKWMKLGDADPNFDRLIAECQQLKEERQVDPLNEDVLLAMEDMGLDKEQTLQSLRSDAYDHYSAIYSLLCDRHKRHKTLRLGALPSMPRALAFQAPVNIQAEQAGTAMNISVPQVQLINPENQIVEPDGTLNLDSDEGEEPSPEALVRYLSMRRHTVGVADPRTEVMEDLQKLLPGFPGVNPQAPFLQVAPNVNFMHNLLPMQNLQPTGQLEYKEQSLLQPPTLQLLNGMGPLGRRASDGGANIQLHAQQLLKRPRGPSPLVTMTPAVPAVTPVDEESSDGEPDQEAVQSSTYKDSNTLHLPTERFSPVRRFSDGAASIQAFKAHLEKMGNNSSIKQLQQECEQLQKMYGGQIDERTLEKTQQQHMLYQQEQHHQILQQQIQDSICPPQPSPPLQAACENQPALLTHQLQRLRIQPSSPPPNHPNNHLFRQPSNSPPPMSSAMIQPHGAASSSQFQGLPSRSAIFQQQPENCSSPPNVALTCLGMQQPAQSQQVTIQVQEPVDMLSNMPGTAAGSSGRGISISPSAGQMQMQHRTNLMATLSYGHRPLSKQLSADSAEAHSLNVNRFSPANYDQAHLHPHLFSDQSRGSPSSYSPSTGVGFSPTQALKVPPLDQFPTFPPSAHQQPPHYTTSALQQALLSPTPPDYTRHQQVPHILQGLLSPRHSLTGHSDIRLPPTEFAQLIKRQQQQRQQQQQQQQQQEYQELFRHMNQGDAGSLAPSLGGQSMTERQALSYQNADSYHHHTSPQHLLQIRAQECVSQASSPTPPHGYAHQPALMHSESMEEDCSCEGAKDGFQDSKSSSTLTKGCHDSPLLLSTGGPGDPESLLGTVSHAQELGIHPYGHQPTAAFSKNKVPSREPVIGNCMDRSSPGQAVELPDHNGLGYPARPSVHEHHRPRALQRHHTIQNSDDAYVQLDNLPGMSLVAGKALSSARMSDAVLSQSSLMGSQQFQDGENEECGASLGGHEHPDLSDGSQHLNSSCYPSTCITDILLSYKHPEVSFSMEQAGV
Summary of the method: as §1

[3] = target: SIK2 (Homo sapiens, UniProt Q9H0K1); assay: Enzymatic activity assay SIK2, RapidFire mass spectrometry (phosphorylation of CHK-peptide); details: RapidFire MS, inhibition of SIK2; read-out: SIK2 RF IC50
Chain of SIK2 (Q9H0K1 whole entry): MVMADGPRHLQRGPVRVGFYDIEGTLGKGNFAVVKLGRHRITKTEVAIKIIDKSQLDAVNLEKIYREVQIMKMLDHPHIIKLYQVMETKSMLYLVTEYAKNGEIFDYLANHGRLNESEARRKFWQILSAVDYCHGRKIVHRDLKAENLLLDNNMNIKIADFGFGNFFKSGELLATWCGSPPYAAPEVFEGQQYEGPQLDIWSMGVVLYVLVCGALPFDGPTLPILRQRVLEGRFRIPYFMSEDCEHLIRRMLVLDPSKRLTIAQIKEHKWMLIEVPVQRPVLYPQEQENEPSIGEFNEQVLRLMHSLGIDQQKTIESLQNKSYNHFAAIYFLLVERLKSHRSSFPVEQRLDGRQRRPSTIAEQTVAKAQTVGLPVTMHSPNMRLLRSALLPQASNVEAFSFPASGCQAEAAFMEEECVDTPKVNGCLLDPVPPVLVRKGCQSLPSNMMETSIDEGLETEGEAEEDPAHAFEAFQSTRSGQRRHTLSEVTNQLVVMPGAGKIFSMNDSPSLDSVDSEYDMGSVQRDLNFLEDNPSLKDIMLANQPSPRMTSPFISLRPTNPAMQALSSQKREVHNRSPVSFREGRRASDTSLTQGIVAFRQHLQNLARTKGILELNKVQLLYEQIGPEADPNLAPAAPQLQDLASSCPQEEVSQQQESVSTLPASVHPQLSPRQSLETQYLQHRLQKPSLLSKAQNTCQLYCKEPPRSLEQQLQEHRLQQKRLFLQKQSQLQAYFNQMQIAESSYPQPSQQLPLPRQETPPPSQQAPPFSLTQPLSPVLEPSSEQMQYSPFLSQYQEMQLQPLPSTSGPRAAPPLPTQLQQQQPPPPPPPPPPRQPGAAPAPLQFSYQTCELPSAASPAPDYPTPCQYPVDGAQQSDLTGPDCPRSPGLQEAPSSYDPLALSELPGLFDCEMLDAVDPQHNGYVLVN
Summary of the method: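 Read-out is the summed phospho-species fraction of CHK-peptide by RapidFire mass spectrometry, normalized between DMSO and 1 μM YKL-05-099. The reaction used 0.5 nM SIK2, 100 μM ATP and 10 μM peptide solutions in HEPES pH 7.0/10 mM magnesium acetate for 45 min at ambient temperature.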

Chain of SIK1 (P57059 whole entry): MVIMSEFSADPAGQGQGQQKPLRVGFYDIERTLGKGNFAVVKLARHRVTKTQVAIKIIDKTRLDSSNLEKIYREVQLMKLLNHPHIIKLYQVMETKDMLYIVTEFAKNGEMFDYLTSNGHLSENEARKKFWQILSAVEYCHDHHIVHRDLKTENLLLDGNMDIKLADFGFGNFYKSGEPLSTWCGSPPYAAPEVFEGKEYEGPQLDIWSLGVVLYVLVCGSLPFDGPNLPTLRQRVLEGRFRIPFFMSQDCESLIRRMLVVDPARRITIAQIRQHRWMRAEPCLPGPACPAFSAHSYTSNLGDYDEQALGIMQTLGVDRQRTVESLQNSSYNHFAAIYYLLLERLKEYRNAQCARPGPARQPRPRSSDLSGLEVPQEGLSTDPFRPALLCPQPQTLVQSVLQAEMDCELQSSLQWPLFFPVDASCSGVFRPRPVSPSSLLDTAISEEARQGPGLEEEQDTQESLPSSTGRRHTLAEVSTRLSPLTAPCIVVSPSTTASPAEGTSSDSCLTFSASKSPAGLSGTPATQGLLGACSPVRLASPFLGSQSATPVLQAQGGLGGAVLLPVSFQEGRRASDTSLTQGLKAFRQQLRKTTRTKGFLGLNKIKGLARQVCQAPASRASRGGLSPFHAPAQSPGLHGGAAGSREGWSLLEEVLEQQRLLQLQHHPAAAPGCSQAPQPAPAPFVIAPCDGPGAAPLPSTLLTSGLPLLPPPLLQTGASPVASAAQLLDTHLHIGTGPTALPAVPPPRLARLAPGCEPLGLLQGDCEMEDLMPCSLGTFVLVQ

Cc1cc(-c2nc(-n3cnc4cc(Nc5ccc(C)nn5)ccc43)ccc2C(C)O)cnn1 (stereo not drawn) [Example 135, 1-[2-(6-Methylpyridazin-4-yl)-6-[5-[(6-methylpyridazin-3-yl)amino]benzimidazol-1-yl]-3-pyridyl]ethanol]
IC50 [1]: 27700 nM | IC50 [2]: 167 nM | IC50 [3]: 589 nM

Cc1ccc(Nc2ccc3c(c2)ncn3-c2ccc(C(C)O)c(N3CCN(CC(F)(F)F)C(=O)C3)n2)nn1 (stereo not drawn) [Example 136, 4-[3-(1-Hydroxyethyl)-6-[5-[(6-methylpyridazin-3-yl)amino]benzimidazol-1-yl]-2-pyridyl]-1-(2,2,2-trifluoroethyl)piperazin-2-one]
IC50 [1]: 345 nM | IC50 [2]: 3.9 nM | IC50 [3]: 13 nM

Cc1ccc(Nc2ccc3ncn(-c4ccc(C(C)O)c(N5CCN(CC(F)(F)F)C(=O)C5)n4)c3c2)nn1 (stereo not drawn) [Example 137, 4-[3-(1-Hydroxyethyl)-6-[6-[(6-methylpyridazin-3-yl)amino]benzimidazol-1-yl]-2-pyridyl]-1-(2,2,2-trifluoroethyl)piperazin-2-one]
IC50 [1]: 5410 nM | IC50 [2]: 746 nM | IC50 [3]: 1640 nM

COc1cc2ncn(-c3ccc(C(C)O)c(-n4nc(C#N)cc4C)n3)c2cc1Nc1ccc(C)nn1 (stereo not drawn) [Example 140, 1-[3-(1-Hydroxyethyl)-6-[5-methoxy-6-[(6-methylpyridazin-3-yl)amino]benzimidazol-1-yl]-2-pyridyl]-5-methyl-pyrazole-3-carbonitrile]
IC50 [1]: 51 nM | IC50 [2]: 174 nM | IC50 [3]: 38.8 nM

Cc1ccc(Nc2ccc3c(c2)ncn3-c2ccc(C(C)O)c(-c3cn(CC(F)(F)F)nc3C)n2)nn1 (stereo not drawn) [Example 143, 1-[6-[5-[(6-Methylpyridazin-3-yl)amino]benzimidazol-1-yl]-2-[3-methyl-1-(2,2,2-trifluoroethyl)pyrazol-4-yl]-3-pyridyl]ethanol]
IC50 [1]: 103 nM | IC50 [2]: 1.3 nM | IC50 [3]: 0.7 nM

CNC(=O)c1cc(C)n(-c2nc(-n3cnc4ccc(Nc5ccc(C)nn5)cc43)ccc2C(C)O)n1 (stereo not drawn) [Example 144, 1-[3-(1-Hydroxyethyl)-6-[6-[(6-methylpyridazin-3-yl)amino]benzimidazol-1-yl]-2-pyridyl]-N,5-dimethyl-pyrazole-3-carboxamide]
IC50 [1]: 8400 nM | IC50 [2]: 9240 nM | IC50 [3]: 5920 nM

Cc1ccc(Nc2ccc3c(c2)ncn3-c2ccc(C(C)O)c(-n3nc(S(C)(=O)=O)cc3C)n2)nn1 (stereo not drawn) [Example 145, 1-[2-(5-Methyl-3-methylsulfonyl-pyrazol-1-yl)-6-[5-[(6-methylpyridazin-3-yl)amino]benzimidazol-1-yl]-3-pyridyl]ethanol]
IC50 [1]: 552 nM | IC50 [2]: 1.4 nM | IC50 [3]: 9 nM

Cc1cc(C#N)nn1-c1nc(-n2cnc3cc(Nc4ccn(C)c(=O)n4)ccc32)ccc1C(C)O (stereo not drawn) [Example 146, 1-[3-(1-Hydroxyethyl)-6-[5-[(2-keto-1-methyl-pyrimidin-4-yl)amino]benzimidazol-1-yl]-2-pyridyl]-5-methyl-pyrazole-3-carbonitrile]
IC50 [1]: 227 nM | IC50 [2]: 7.8 nM | IC50 [3]: 34.6 nM

Cc1ccc(Nc2ccc3c(c2)ncn3-c2ccc(C(O)C(F)(F)F)c(-n3nc(C#N)cc3C)n2)nn1 (stereo not drawn) [Example 148, 5-Methyl-1-[6-[5-[(6-methylpyridazin-3-yl)amino]benzimidazol-1-yl]-3-(2,2,2-trifluoro-1-hydroxy-ethyl)-2-pyridyl]pyrazole-3-carbonitrile]
IC50 [1]: 663 nM | IC50 [2]: 1.2 nM | IC50 [3]: 10.3 nM

Cc1ccc(Nc2ccc3c(c2)ncn3-c2ccc(C(C)O)c(-c3cn(C(F)F)nc3C)n2)nn1 (stereo not drawn) [Example 149, 1-[2-[1-(Difluoromethyl)-3-methyl-pyrazol-4-yl]-6-[5-[(6-methylpyridazin-3-yl)amino]benzimidazol-1-yl]-3-pyridyl]ethanol]
IC50 [1]: 1290 nM | IC50 [2]: 1.9 nM | IC50 [3]: 8.4 nM
